# Measured values taken from patent US20120197004A1, “NOVEL ANTI-MICROBIAL PEPTIDOMIMETIC COMPOUNDS AND METHODS TO CALCULATE ANTI-MICROBIAL ACTIVITY” (priority 2006, published 2012).
# Read-outs that look alike come from different tables or passages of the source. Where a SMILES comes first, the peptide text is derived from it. [ ]: non-standard residue; d: D form. ξ: configuration not given here. Oic = O=C(O)[C@@H]1C[C@@H]2CCCC[C@@H]2N1; Tic = O=C(O)[C@@H]1Cc2ccccc2CN1; ξTic = O=C(O)C1Cc2ccccc2CN1; ξOic = O=C(O)C1CC2CCCCC2N1; βAla = NCCC(=O)O
# Legend:
# [1] = system: Mycobacterium ranae (ATCC 110)
# [2] = system: Salmonella typhimurium (ATCC 13311); conditions: for MIC Salmonella typhimurium: ATCC 13311; for p(MIC) Salmonella typhimurium: -log(MIC)
# [3] = system: Bacillus subtillis (ATCC 43223); conditions: for MIC Bacillus Subtillis: ATCC 43223
# [4] = in vitro; conditions: mouse, microsomes, pH 7.4
# [5] = in vitro; conditions: human, microsomes, pH 7.4
# [6] = in vitro; conditions: rat, microsomes, pH 7.4
# [7] = system: red blood cells
# [8] = in vitro; conditions: monkey, microsomes, pH 7.4
# [9] = system: Staphylococcus aureus Methicillin/Gentamicin/Tetracycline Resistant (ATCC 33592); conditions: for Minimum Inhibitory Concentration Staphylococcus aureus ME/GM/TC resistant: in vitro MIC, tested at 100, 30, 10, 3, 1, 0.3 and 0.1 μM in 1% DMSO; for p(MIC) Staphylococcus aureus ME/GM/TC resistant: -log(MIC); for Actual Bioactivity: p(MIC) used in Staphylococcus aureus QSAR model
# [10] = in vitro; conditions: dog, microsomes, pH 7.4
# [11] = Maximum tolerated dose in mouse model; assay type: in vivo; conditions: IP, dosed daily day 1-6
# Description: Maximum Tolerated Dose: Six compounds were evaluated in an in vivo mouse model to determine the maximum tolerated dose for each compound by BIOCON, Inc. using the following protocol. For each compound 3 dose concentrations (1/5/25 mg/kg or 5/25/125 mg/kg) were administered IP, 1-2 times per day as split doses. Day 0 weigh the animals, day 1-6 dose daily and observe animals, day 7 weigh, euthanasia followed by necrotize to examine abdominal cavity.
# [12] = Metabolic stability, rat liver microsomes
# [13] = system: B. melitensis 16M
# [14] = Metabolic stability, mouse liver microsomes
# [15] = system: F. tularensis SCHU-S4
# [16] = Metabolic stability, monkey liver microsomes
# [17] = Metabolic stability, dog liver microsomes
# [18] = system: red blood cells; experiment: Hemolytic studies; conditions: for % hemolysis / Hemolytic activity: concentration not given
# [19] = Metabolic stability, human liver microsomes; conditions: for % remaining at time T, Human Liver: 0.5 mg/mL microsomes
# [20] = system: Plasmodium falciparum D6 (CDC Sierra Leone, mefloquine resistant)
# [21] = system: Plasmodium falciparum W2 (CDC Indochina III chloroquine, quinine, pyrimethamine and sulfadoxine-resistant)
# [22] = Minimal Inhibitory Concentration, tested at 100-0.1 in 1% DMSO
# [23] = liver microsomes, 1 μM, T = 60 min
smiles,measurement,setting,value
"CC(=O)NCC(=O)N1Cc2ccccc2CC1C(=O)N1C(C(=O)N[C@@H](CCCCN)C(=O)N2Cc3ccccc3CC2C(=O)N2C(C(=O)NCC(=O)N3Cc4ccccc4CC3C(=O)N3C(C(=O)N[C@@H](CCCCN)C(=O)N4Cc5ccccc5CC4C(=O)N[C@@H](CCCCN)C(=O)N[C@@H](CCCCN)C(=O)N[C@@H](CCCCN)C(=O)N[C@@H](CCCCN)C(N)=O)CC4CCCCC43)CC3CCCCC32)CC2CCCCC21 (stereo partly drawn) [FKAB-1Ge, Ac-G-Tic-Oic-K-Tic-Oic-G-Tic-Oic-K-Tic-KKKK-CONH2] (Ac-G[ξTic][ξOic]K[ξTic][ξOic]G[ξTic][ξOic]K[ξTic]KKKK-NH2)",MIC Mycobacterium ranae,[1]; ATCC 110,0.003 mM
same,MIC Salmonella typhimurium,[2],0.01 mM
same,MIC Bacillus Subtillis,[3],0.001 mM
same,"remaining at 0.25 h, 1 μM",[4],85%
same,"remaining at 0.5 h, 1 μM",[4],20%
same,"remaining at 1 h, 1 μM",[4],11%
same,"remaining at 0.25 h, 1 μM",[5],114%
same,"remaining at 0.25 h, 1 μM",[6],69%
same,"remaining at 0.5 h, 1 μM",[6],73%
same,"remaining at 1 h, 1 μM",[6],95%
same,% hemolysis 100/25 μM (first value),[7],26.7%/
same,% hemolysis 100/25 μM (second value),[7],9.2%
same,"remaining at 0.25 h, 1 μM",[8],56%
same,"remaining at 0.5 h, 1 μM",[8],73%
same,MIC Staphylococcus aureus ME/GM/TC resistant,[9]; [22],0.01 mM
same,Minimum Inhibitory Concentration Staphylococcus aureus ME/GM/TC resistant,[9],10 µM
same,"remaining at 0.5 h, 1 μM",[10],43%
same,"remaining at 1 h, 1 μM",[10],54%
same,Maximum Tolerated Dose/Toxicity 1 mg/kg,[11],no observed toxicity
"CC(=O)NCCC(=O)N[C@@H](Cc1ccccc1)C(=O)N1Cc2ccccc2CC1C(=O)N1C(C(=O)NCCC(=O)N[C@@H](CCCCN)C(=O)N2Cc3ccccc3CC2C(=O)N2C(C(=O)NCCC(=O)N[C@@H](Cc3ccccc3)C(=O)N3Cc4ccccc4CC3C(=O)N3C(C(=O)NCCC(=O)N[C@@H](CCCCN)C(=O)N4Cc5ccccc5CC4C(=O)N[C@@H](CCCCN)C(=O)N[C@@H](CCCCN)C(=O)N[C@@H](CCCCN)C(=O)N[C@@H](CCCCN)C(N)=O)CC4CCCCC43)CC3CCCCC32)CC2CCCCC21 (stereo partly drawn) [FKAB-1Gd1, Ac-βAla-F-Tic-Oic-βAla-K-Tic-Oic-βAla-F-Tic-Oic-βAla-K-Tic-KKKK-CONH2] (Ac-[βAla]F[ξTic][ξOic][βAla]K[ξTic][ξOic][βAla]F[ξTic][ξOic][βAla]K[ξTic]KKKK-NH2)",MIC Mycobacterium ranae,[1]; ATCC 110,0.001 mM
same,Minimum Inhibitory Concentration Mycobacterium ranae,[1]; ATCC 110,1 µM
same,metabolic stability T = 60 min rat,[12]; [23],high
same,"remaining at 0.25 h, 1 μM","[12]; rat, microsomes, pH 7.4",82%
same,"remaining at 0.5 h, 1 μM","[12]; rat, microsomes, pH 7.4",79%
same,"remaining at 1 h, 1 μM","[12]; rat, microsomes, pH 7.4",92%
same,MIC Salmonella typhimurium,[2],0.01 mM
same,Minimum Inhibitory Concentration B. melitensis 16M,[13],>500 µg/mL
same,MIC Bacillus Subtillis,[3],0.001 mM
same,metabolic stability T = 60 min mouse,[14]; [23],moderate
same,"remaining at 0.25 h, 1 μM","[14]; mouse, microsomes, pH 7.4",90%
same,"remaining at 0.5 h, 1 μM","[14]; mouse, microsomes, pH 7.4",64%
same,"remaining at 1 h, 1 μM","[14]; mouse, microsomes, pH 7.4",53%
same,Minimum Inhibitory Concentration F. tularensis SCHU-S4,[15],500 µg/mL
same,metabolic stability T = 60 min monkey,[16]; [23],high
same,"remaining at 0.25 h, 1 μM","[16]; monkey, microsomes, pH 7.4",90%
same,"remaining at 0.5 h, 1 μM","[16]; monkey, microsomes, pH 7.4",87%
same,"remaining at 1 h, 1 μM","[16]; monkey, microsomes, pH 7.4",89%
same,MIC Staphylococcus aureus ME/GM/TC resistant,[9]; ATCC 33592,0.01 mM
same,"% remaining, Dog Liver T = 15","[17]; T = 15 min, 1 μM, 0.5 mg/mL microsomes",84%
same,"remaining at 0.5 h, 1 μM","[17]; dog, microsomes, pH 7.4",78%
same,"remaining at 1 h, 1 μM","[17]; dog, microsomes, pH 7.4",71%
same,metabolic stability T = 60 min dog,[17]; [23],Moderate
same,% hemolysis 100/25 μM (first value),[18]; 100 μM,24.4%/
same,"remaining at 0.25 h, 1 μM","[19]; human, microsomes, pH 7.4",94%
same,metabolic stability T = 60 min human,[19]; [23],high
same,"% remaining at time T, Human Liver","[19]; second human column (T = 30 min, head not given), 1 μM",99%
same,"% remaining at time T, Human Liver","[19]; third human column (T = 60 min, head not given), 1 μM",97%
same,Maximum Tolerated Dose/Toxicity 125 mg/kg,[11]; 125 mg/kg,5 out 5 animals died
"CC(C)C[C@H](NC(=O)CNC(=O)[C@H](CCCCN)NC(=O)CN)C(=O)N1Cc2ccccc2C[C@H]1C(=O)N1[C@H](C(=O)NCC(=O)N[C@@H](CCCCN)C(=O)N2Cc3ccccc3C[C@H]2C(=O)N2[C@H](C(=O)NCC(=O)N[C@@H](CC(C)C)C(=O)N3Cc4ccccc4C[C@H]3C(=O)N3[C@H](C(=O)NCC(=O)N[C@@H](CCCCN)C(=O)N4Cc5ccccc5C[C@H]4C(=O)N4[C@H](C(=O)NCC(=O)N[C@@H](CC(C)C)C(=O)N5Cc6ccccc6C[C@H]5C(=O)N5[C@H](C(=O)NCC(=O)N[C@@H](CCCCN)C(=O)N6Cc7ccccc7C[C@H]6C(=O)N6[C@H](C(=O)NCC(=O)N[C@@H](CCCCN)C(=O)N[C@@H](CCCNC(=N)N)C(N)=O)C[C@@H]7CCCC[C@@H]76)C[C@@H]6CCCC[C@@H]65)C[C@@H]5CCCC[C@@H]54)C[C@@H]4CCCC[C@@H]43)C[C@@H]3CCCC[C@@H]32)C[C@@H]2CCCC[C@@H]21 [WRFK-4, NH2-GKGL-Tic-Oic-GK-Tic-Oic-GL-Tic-Oic-GK-Tic-Oic-GL-Tic-Oic-GK-Tic-Oic-GKR-CONH2] (H-GKGL[Tic][Oic]GK[Tic][Oic]GL[Tic][Oic]GK[Tic][Oic]GL[Tic][Oic]GK[Tic][Oic]GKR-NH2)",p(MIC) Salmonella typhimurium,[2],4.00
same,MIC Salmonella typhimurium,[2],0.1 mM
same,IC50 * D6,[20],7.8 µg/mL
same,IC50 * W2,[21],6.5 µg/mL
same,p(MIC) Staphylococcus aureus ME/GM/TC resistant,[9],5.00
same,Actual Bioactivity,[9],5.000
same,% hemolysis / Hemolytic activity,[18],100%
"CC(C)C[C@H](NC(=O)CNC(=O)[C@H](CCCCN)NC(=O)CN)C(=O)N1Cc2ccccc2C[C@H]1C(=O)N1[C@H](C(=O)NCC(=O)N[C@@H](CCCNC(=N)N)C(=O)N2Cc3ccccc3C[C@H]2C(=O)N2[C@H](C(=O)NCC(=O)N[C@@H](Cc3ccccc3)C(=O)N3Cc4ccccc4C[C@H]3C(=O)N3[C@H](C(=O)NCC(=O)N[C@@H](CCCNC(=N)N)C(=O)N4Cc5ccccc5C[C@H]4C(=O)N4[C@H](C(=O)NCC(=O)N[C@@H](Cc5ccccc5)C(=O)N5Cc6ccccc6C[C@H]5C(=O)N5[C@H](C(=O)NCC(=O)N[C@@H](CCCNC(=N)N)C(=O)N6Cc7ccccc7C[C@H]6C(=O)N6[C@H](C(=O)NCC(=O)N[C@@H](CCCCN)C(=O)N[C@@H](CCCNC(=N)N)C(N)=O)C[C@@H]7CCCC[C@@H]76)C[C@@H]6CCCC[C@@H]65)C[C@@H]5CCCC[C@@H]54)C[C@@H]4CCCC[C@@H]43)C[C@@H]3CCCC[C@@H]32)C[C@@H]2CCCC[C@@H]21 [WRFK-2, NH2-GKGL-Tic-Oic-GR-Tic-Oic-GF-Tic-Oic-GR-Tic-Oic-GF-Tic-Oic-GR-Tic-Oic-GKR-CONH2] (H-GKGL[Tic][Oic]GR[Tic][Oic]GF[Tic][Oic]GR[Tic][Oic]GF[Tic][Oic]GR[Tic][Oic]GKR-NH2)",Actual Bioactivity,[1],0.000
same,MIC Mycobacterium ranae,[1],1000 mM
same,Minimum Inhibitory Concentration Mycobacterium ranae,[1],not active
same,p(MIC) Salmonella typhimurium,[2],4.00
same,MIC Salmonella typhimurium,[2],0.1 mM
same,p(MIC) Bacillus Subtillis,[3]; -log(MIC),6.00
same,MIC Bacillus Subtillis,[3],0.001 mM
same,IC50 * D6,[20],7.2 µg/mL
same,IC50 * W2,[21],6.9 µg/mL
same,p(MIC) Staphylococcus aureus ME/GM/TC resistant,[9],5.00
same,MIC Staphylococcus aureus ME/GM/TC resistant,[9]; [22],0.01 mM
same,Minimum Inhibitory Concentration Staphylococcus aureus ME/GM/TC resistant,[9],10 µM
same,Actual Bioactivity,[9],5.000
same,% hemolysis / Hemolytic activity,[18],100%
"CC(C)C[C@H](NC(=O)[C@@H](N)CCCCN)C(=O)N1Cc2ccccc2CC1C(=O)N1C(C(=O)NCC(=O)N[C@@H](CCCCN)C(=O)N2Cc3ccccc3CC2C(=O)N2C(C(=O)NCC(=O)N[C@@H](Cc3ccccc3)C(=O)N3Cc4ccccc4CC3C(=O)N3C(C(=O)NCC(=O)N[C@@H](CCCCN)C(=O)N4Cc5ccccc5CC4C(=O)N[C@@H](CCCCN)C(=O)N[C@@H](CCCCN)C(=O)N[C@@H](CCCCN)C(=O)N[C@@H](CCCCN)C(N)=O)CC4CCCCC43)CC3CCCCC32)CC2CCCCC21 (stereo partly drawn) [FKAB-1Gb, NH2--KL-Tic-Oic-GK-Tic-Oic-GF-Tic-Oic-GK-Tic-KKKK-CONH2] (H-KL[ξTic][ξOic]GK[ξTic][ξOic]GF[ξTic][ξOic]GK[ξTic]KKKK-NH2)",MIC Mycobacterium ranae,[1]; ATCC 110,0.003 mM
same,Minimum Inhibitory Concentration Mycobacterium ranae,[1]; ATCC 110,3 µM
same,MIC Salmonella typhimurium,[2],0.003 mM
same,MIC Bacillus Subtillis,[3],0.001 mM
same,"remaining at 0.25 h, 1 μM",[4],87%
same,"remaining at 0.5 h, 1 μM",[4],73%
same,"remaining at 1 h, 1 μM",[4],70%
same,"remaining at 0.25 h, 1 μM",[5],98%
same,"remaining at 0.25 h, 1 μM",[6],84%
same,"remaining at 0.5 h, 1 μM",[6],84%
same,"remaining at 1 h, 1 μM",[6],91%
same,% hemolysis 100/25 μM (first value),[7],43.6%/
same,% hemolysis 100/25 μM (second value),[7],24.9%
same,"remaining at 0.25 h, 1 μM",[8],86%
same,"remaining at 0.5 h, 1 μM",[8],87%
same,"remaining at 1 h, 1 μM",[8],97%
same,MIC Staphylococcus aureus ME/GM/TC resistant,[9]; [22],0.03 mM
same,Minimum Inhibitory Concentration Staphylococcus aureus ME/GM/TC resistant,[9],30 µM
same,"remaining at 0.5 h, 1 μM",[10],99%
same,"remaining at 1 h, 1 μM",[10],81%
same,Maximum Tolerated Dose/Toxicity 1 mg/kg,[11],no observed toxicity
